Values joined by “and” are separate entries in the source; they are usually repeats but may differ in a detail not shown here. Equal entries are not always repeated. “Also recorded” adds a separate entry of the source.
Assays:
[1] = target: T1, human recombinant mTOR kinase (Homo sapiens, UniProt P42345); assay: In vitro mTOR kinase assay (K-LISA ELISA, p70S6K-GST substrate); assay type: biochemical
T1 construct: a purified recombinant mTOR fragment (amino acids 1360-2549, CBA104-1KIT from Calbiochem); purchased Calbiochem CBA104-1KIT
T1 sequence (P42345 1360-2549): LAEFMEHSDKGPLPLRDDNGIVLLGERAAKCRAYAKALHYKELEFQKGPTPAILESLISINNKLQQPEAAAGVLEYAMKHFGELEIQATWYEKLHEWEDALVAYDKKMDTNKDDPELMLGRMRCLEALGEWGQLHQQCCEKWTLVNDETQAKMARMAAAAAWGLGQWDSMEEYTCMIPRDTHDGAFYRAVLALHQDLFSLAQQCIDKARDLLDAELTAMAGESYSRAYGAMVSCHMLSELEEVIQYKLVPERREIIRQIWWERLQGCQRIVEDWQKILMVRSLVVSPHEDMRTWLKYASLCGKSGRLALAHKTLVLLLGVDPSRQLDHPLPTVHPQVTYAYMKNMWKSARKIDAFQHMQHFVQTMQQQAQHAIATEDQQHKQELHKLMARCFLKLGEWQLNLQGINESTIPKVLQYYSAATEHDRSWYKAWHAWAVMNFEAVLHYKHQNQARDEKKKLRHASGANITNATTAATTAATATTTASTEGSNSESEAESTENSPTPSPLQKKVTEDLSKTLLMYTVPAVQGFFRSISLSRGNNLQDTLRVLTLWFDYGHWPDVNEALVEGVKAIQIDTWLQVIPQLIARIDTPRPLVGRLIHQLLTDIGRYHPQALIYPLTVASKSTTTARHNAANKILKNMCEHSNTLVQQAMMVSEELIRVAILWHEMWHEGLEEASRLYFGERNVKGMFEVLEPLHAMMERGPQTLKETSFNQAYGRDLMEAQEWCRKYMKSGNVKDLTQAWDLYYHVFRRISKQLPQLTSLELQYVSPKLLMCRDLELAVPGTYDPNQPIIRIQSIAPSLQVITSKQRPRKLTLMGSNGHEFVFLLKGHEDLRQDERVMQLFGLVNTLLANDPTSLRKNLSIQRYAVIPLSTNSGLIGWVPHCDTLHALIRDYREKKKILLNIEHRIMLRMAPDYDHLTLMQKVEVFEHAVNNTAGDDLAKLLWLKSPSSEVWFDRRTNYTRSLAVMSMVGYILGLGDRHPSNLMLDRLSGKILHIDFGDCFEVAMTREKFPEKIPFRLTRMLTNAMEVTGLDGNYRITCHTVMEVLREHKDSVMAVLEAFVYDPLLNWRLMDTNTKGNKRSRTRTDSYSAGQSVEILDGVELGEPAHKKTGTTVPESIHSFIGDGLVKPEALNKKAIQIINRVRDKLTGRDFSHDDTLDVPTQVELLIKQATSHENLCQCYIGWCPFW
Protocol: The mTOR kinase inhibitory activities of the 41 final virtual hits were determined using an ELISA-based activity assays that utilize a p70S6K-GST fusion protein as a specific mTOR substrate (see the Experimental Section for details). For the initial screening, all the activities were measured at a concentration of 10 μM.
mTOR activity was evaluated using a purified recombinant mTOR fragment (amino acids 1360-2549, CBA104-1KIT from Calbiochem). The K-LISA^TM mTOR activity kit is an ELISA-based activity assay for detection of phosphorylation of a p70S6K-GST fusion protein (a specific mTOR substrate) in the presence of ATP. The assay was optimized for use with mTOR as described in the Calbiochem protocol. The assay takes place in 96-well plates and can be divided into two phases: an mTOR kinase reaction phase and phosphorylated substrate detection phase.
In the kinase reaction phase, the following components were mixed in the same well: 5 μL of a solution containing 5 μg/mL mTOR substrate (recombinant p70S6K-GST fusion protein) in Tris-buffered saline (1 L TBS: sodium chloride 8.8 g, Tris Base 2.4 g, HCl 13 mL, Tween-20 10 ml, ddH2O), 5 μL ATP solution containing 20 mM ATP diluted in kinase assay buffer (pH 7.4, 0.01% Tween 20, 1 mM EDTA, 10 mM MgCl2, 1 mM DTT), […] of human recombinant mTOR kinase at the optimal concentration (80 ng/well) diluted in kinase assay buffer, and 5 μL of serial dilutions of inhibitors diluted in DMSO and kinase assay buffer. For each inhibitor concentration, the assay was run in triplicate. The final reaction volume was 100 μL per well, and samples incubated for 30 min at room temperature.
The kinase reaction was stopped by adding 10 μL kinase stop solution to each well. The phosphorylated substrate was detected using Anti-p70S6K-pT389 antibody, followed by detection with HRP-Antibody Conjugate and TMB Substrate. Then, ELISA stop solution was added to each well to stop the reaction, and relative mTOR inhibition activity was determined by reading the absorbance at dual wavelengths of 450/540 nm.

[2] = system: HeLa cells; assay: Quantification of apoptotic cells (Hoechst 33342 staining); assay type: cell-based, human; details: 24 hours (control 1.9%)
Protocol: (§1) To elucidate the mechanisms of cell death induced by 17, we analyzed the effect of 17 on nuclear morphology using Hoechst 33342 staining. […] This observation allowed for clear discrimination of treated cells from untreated non-apoptotic HeLa cells, which have a normal, round, and unpunctuated nucleus. […] The percentage of apoptotic HeLa cells were 6.5% and 7.7% at the concentrations of 2.74 and 5.48 μM, respectively (Fig. 6d). To further confirm the nuclear morphology observation, Western blotting was used to detect caspase-3 activation and PARP cleavage, two biochemical markers of apoptosis. […] The induction of apoptosis is positively correlated with the concentration of compound 17.
[…] Then, the cells were collected, washed with PBS, and fixed in 4% paraformaldehyde for 15 min at room temperature. Finally, the samples were stained with Hoechst33342 (10 μg/mL) for 5 min. Stained nuclei were photographed under a fluorescence microscope with a 20× objective (Nikon).

[3] = system: caspase-3 activation and PARP cleavage in HeLa cells; assay: Western blot of apoptosis markers; assay type: cell-based, human; details: 24 h, compared with control
Protocol: as §1
[…] Samples were prepared by lysing PBS-washed cells with RIPA buffer (Beyotime, Haimen, China) consisting of 1% Nonidet P-40, 0.5% sodium deoxycholate, 0.1% SDS, and 50 mM Tris-HCl, pH 7.4, supplemented with NaF, NaVO4, EDTA and a protease inhibitor cocktail (Roche). Proteins were subjected to SDS-PAGE gel electrophoresis and transferred onto a polyvinylidene difluoride membrane (Hybond-P; GE Healthcare Life Sciences, Piscataway, NJ). […] The densitometry of each band was quantified by FluorChem 8000 (AlphaInnotech, San Leandro, CA).

[4] = system: HeLa cells; assay: Cell cycle analysis by flow cytometry; assay type: cell-based, human; details: 2.74 and 5.48 μM, 24 hours
Protocol: To further explore the mechanism of cell growth inhibition by compound 17, we examined the effects of compound 17 on cell cycle distribution in HeLa cells using flow cytometry.
Cells cycle distribution was analyzed as previously described. In brief, HeLa cells (1.5 × 10^4/well) seeded in six-well plates were incubated with compound 17 for 24 h. Then, the cells were collected, washed twice with phosphate-buffered saline (PBS), and fixed in 70% cold ethanol at −20 °C overnight. Finally, the samples were stained with 50 μg/mL propidium iodide and 30 μg/mL of RNase A at 37 °C for 1 h. DNA content data were acquired using CELLQuest software on a flow cytometer (FACSCalibur; Becton Dickinson, Mountain View, CA, USA).

[5] = system: PI3K pathway (Akt phosphorylation on Thr308) in HeLa cells; assay: Western blot of PI3K pathway; assay type: cell-based, human; details: compared with the controls
Protocol: To evaluate whether compound 17 inhibits the PI3K pathway, the Akt phosphorylation level on Thr308 was determined.
HeLa cells were cultured in a six-well plate in the presence of compound 17 for 48 h. Samples were prepared by lysing PBS-washed cells with RIPA buffer (Beyotime, Haimen, China) consisting of 1% Nonidet P-40, 0.5% sodium deoxycholate, 0.1% SDS, and 50 mM Tris-HCl, pH 7.4, supplemented with NaF, NaVO4, EDTA and a protease inhibitor cocktail (Roche). Proteins were subjected to SDS-PAGE gel electrophoresis and transferred onto a polyvinylidene difluoride membrane (Hybond-P; GE Healthcare Life Sciences, Piscataway, NJ). Immunoblotting was performed using rabbit monoclonal antibodies (Cell Signaling Technology; Danvers, MA) against p70S6K1 phosphorylated on Thr 389 (#9234) and total p70S6K1 (#2708), 4E-BP1 phosphorylated on Thr 37 (#2855) and total 4E-BP1 (#9452), Akt phosphorylated on Thr 308 (#4056) or Ser 473 (#4060) and total Akt (#4685), cleaved caspase-3 (#9664), PARP (#9532), and β-actin (#3700). […] The densitometry of each band was quantified by FluorChem 8000 (AlphaInnotech, San Leandro, CA).

inhibition at 10 µM ([1]; 10 μM, triplicate measurements): 61%
IC50 ([1]; mean ± SD of triplicate measurements): < 10 µM and 7.59 µM
SMILES: Nc1nn2c(nc(N)c3c(N)n[nH]c32)c1/N=N/c1ccccc1 [Compound 17]
% of apoptotic cells ([2]; 2.74 μM): 6.5%
% of apoptotic cells ([2]; 5.48 μM): 7.7%
levels of cleaved (activated) caspase-3 and PARP [3]: markedly increased
cell cycle distribution [4]: arrests the cell cycle of HeLa at the G1/G0-phase; also recorded: induced an arrest of cell cycle at the G1/G0-phase
P-Akt Thr308 [5]: not affected
